From PMC9166630, “SAR Probing of KX2-391 Provided Analogues With Juxtaposed Activity Profile Against Major Oncogenic Kinases” (Frontiers in Oncology, 2022)

How the values were obtained:
HL60 cells = assay: Cell cycle analysis (Hoechst 33342, flow cytometry); type: cell-based, human; settings: HL60, 5 µM, 48 h
Procedure: The effect of 4e on the distribution of cells in different phases of the cell cycle was determined by flow cytometry using Hoescht 33342 staining in HL60 cells.
HL60 cells (3.5 x 10^5) were seeded in a 6-well plate, were treated with appropriate concentrations of the test compound after attachment, and were incubated at 37°C for 48 h. The treated cells were then collected and washed twice with ice-cold PBS (1X). The washed cells were fixed using 80% ice cold ethanol and stored at -20°C overnight. Fixed cells were washed twice with PBS before staining with 10 µg of Hoechst 33342 (10 µg/mL; Thermo Fisher Scientific, Inc.) and incubated in the dark for 30 min on ice. Cells were washed again with PBS wash and a minimum total of 20,000 events were collected and analyzed using a BD FACSAria III flow cytometer (BD Biosciences, USA). Flowlogic software version 7.0/7.2.1 (Inivai Technologies Pvt Ltd, Victoria, Australia) was used to obtain the percentage distribution of cells in G1, S, and G2/M phases in the singlet-gated population. For validation purpose, we included KX2-391 as a positive reference in this assay.

Tyro3/Sky = target: T1, Tyro3/Sky (Homo sapiens, UniProt Q06418); assay: PamChip tyrosine kinase microarray, Tyro3/Sky; type: biochemical; settings: 4e 0.1 µM, HL60 lysate
T1 construct: endogenous in cells; host or cells: HL60 lysate
T1 sequence (Q06418 41-890): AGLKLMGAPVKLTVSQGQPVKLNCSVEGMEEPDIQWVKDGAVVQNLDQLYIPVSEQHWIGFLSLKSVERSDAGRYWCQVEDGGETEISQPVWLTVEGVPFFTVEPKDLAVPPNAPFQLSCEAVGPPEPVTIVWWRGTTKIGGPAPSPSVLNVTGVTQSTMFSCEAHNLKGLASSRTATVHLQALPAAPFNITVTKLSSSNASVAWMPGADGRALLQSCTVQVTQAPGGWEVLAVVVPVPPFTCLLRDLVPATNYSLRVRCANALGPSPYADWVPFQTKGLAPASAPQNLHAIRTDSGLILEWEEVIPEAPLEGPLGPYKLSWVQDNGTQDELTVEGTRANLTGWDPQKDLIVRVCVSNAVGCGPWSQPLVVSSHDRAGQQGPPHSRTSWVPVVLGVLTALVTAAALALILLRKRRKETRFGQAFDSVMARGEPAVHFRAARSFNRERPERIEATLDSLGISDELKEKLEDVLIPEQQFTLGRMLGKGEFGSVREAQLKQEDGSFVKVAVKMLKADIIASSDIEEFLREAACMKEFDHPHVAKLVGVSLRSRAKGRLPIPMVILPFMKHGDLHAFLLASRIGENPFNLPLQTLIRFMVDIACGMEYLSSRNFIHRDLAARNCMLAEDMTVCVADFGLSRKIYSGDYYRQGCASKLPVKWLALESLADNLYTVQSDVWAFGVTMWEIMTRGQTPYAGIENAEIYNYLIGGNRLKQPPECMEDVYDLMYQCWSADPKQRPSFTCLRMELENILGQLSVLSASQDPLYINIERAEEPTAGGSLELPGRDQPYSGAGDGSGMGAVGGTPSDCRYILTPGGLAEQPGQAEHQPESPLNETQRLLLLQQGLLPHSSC
Procedure: (§1) The changes in kinase activities induced by treatment with 4e were monitored within the HL60 cell lines using PamGene’s (Hertogenbosch, Netherlands) PamChip® peptide microarray profiler, which quantifies the activities of 144 tyrosine kinases (YK) ([29], [30]) (Figure 7). Results are provided as a log fold change (LFC) heatmap and Mean Kinase Statistic. From the LFC it is apparent that compound 4e, at a concentration of 0.1 µM, induced sizable changes to the activity of several kinases within the cell signaling YK profile (Figure 7A).
(§2) An Upstream Kinase tool was used to generate a putative list of kinases responsible for phosphorylating the phospho-sites on the PamChip (Figure 7B) ([31]). It is an interpretation and is highly dependent on the contents of the underlying phosphorylation databases. A Kinase Score was used for ranking kinases based on their significance and specificity in terms of the set of peptides used for the corresponding kinase. Kinase Statistics indicates the overall change of the peptide set that represents the kinase. Kinase statistics value <0 indicates lower kinase activity in the compound spiked lysate and vice versa ([32], [33]). Table 5 lists the 20 most changed kinases within treated HL60 cell lysates by 0.1 μM 4e, ranked according to their Kinase Score.
(§3) The compound 4e was spiked into HL60 cell lysate at different concentrations (0.001, 0.01, 0.1, 1, 10 and 50 μM). In addition, DMSO was also spiked in HL60 lysate at low concentration (2% v/v) as control. Samples were profiled on PamGene’s Tyrosine Kinase (PTK) arrays in technical replicates, covering a total of 196 phosphorylation sites. Frozen HL60 cultured cell pellet was sent to PamGene. At PamGene, cells were lysed using a lysis buffer and proteases inhibitors cocktail. Protein concentration was measured using standard Bradford assay as per PamGene SOPs. These lysates were further used for generating the PTK activity profiles. For spiking, 4e was received as powder form and dissolved in DMSO at PamGene facility followed by storing at -20°C in small aliquots. PamGene used its in-house bioinformatics toolbox in combination with other methods to generate hypotheses of signaling pathways.

EphA1 = target: T2, EphA1 (Homo sapiens, UniProt P21709); assay: PamChip tyrosine kinase microarray, EphA1; type: biochemical; settings: 4e 0.1 µM, HL60 lysate
T2 construct: endogenous in cells; host or cells: HL60 lysate
T2 sequence (P21709 26-976): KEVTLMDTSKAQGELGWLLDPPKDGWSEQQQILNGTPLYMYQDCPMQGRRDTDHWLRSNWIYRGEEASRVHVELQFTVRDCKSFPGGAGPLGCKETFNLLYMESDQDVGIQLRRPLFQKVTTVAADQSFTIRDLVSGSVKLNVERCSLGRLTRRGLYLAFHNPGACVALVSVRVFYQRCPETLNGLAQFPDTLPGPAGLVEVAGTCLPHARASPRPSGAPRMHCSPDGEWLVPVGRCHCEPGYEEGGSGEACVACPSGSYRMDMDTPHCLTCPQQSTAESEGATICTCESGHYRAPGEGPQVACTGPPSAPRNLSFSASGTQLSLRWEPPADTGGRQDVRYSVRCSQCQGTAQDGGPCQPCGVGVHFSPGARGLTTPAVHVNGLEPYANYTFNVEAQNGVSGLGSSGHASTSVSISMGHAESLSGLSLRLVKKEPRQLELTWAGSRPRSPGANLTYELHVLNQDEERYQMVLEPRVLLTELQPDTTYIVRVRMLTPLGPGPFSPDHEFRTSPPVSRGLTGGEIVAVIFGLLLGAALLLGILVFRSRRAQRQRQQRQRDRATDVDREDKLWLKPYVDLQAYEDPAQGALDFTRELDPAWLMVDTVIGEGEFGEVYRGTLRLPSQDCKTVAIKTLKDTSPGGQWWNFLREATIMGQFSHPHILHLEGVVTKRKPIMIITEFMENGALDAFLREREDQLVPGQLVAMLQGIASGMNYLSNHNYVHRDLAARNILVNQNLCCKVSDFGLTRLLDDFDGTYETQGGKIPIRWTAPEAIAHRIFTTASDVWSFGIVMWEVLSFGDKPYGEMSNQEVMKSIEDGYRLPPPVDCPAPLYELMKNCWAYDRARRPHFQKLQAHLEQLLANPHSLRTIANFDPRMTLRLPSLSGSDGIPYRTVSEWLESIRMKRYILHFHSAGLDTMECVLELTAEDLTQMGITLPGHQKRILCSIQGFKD
Procedure: as §1, §2, §3

CTK = assay: PamChip tyrosine kinase microarray, CTK; type: biochemical, human; settings: 4e 0.1 µM, HL60 lysate
Procedure: as §1, §2, §3

O=C(Cc1ccc(NC(=O)c2cccc(Cl)c2)cc1)NCc1ccccc1 [Compound 4e, N-(4-(2-(benzylamino)-2-oxoethyl)phenyl)-3-chlorobenzamide]
Apoptosis (cell cycle profile) (HL60 cells): 14.66%
G2M population (HL60 cells): 24.51%
Mean Final Score (Tyro3/Sky): 1.8204
Mean Kinase Statistic (Tyro3/Sky): -0.5274
Mean Significance Score (Tyro3/Sky): 1.2459
Mean Specificity Score (Tyro3/Sky): 0.5745
Mean Final Score (EphA1): 1.8401
Mean Kinase Statistic (EphA1): -0.6954
Mean Significance Score (EphA1): 1.1254
Mean Specificity Score (EphA1): 0.7147
Mean Final Score (CTK): 1.5802
Mean Kinase Statistic (CTK): -0.4874
Mean Significance Score (CTK): 1.1881
Mean Specificity Score (CTK): 0.3920
